Test results from ChEMBL document CHEMBL1212769, “Multiple-dose safety, tolerability, and pharmacokinetics of oral nemonoxacin (TG-873870) in healthy volunteers” (Antimicrob Agents Chemother, 2010).

Tests used:
[1] = AUC(0 to last) in human at 500 mg/kg, po measured on day 1; format: ADME, organism-based; set-up: time 0 - last, dose 500 mg/kg, route oral; conditions: plasma
[2] = AUC (0 to 24 hrs) in human at 500 mg/kg, po measured on day 16; format: ADME, organism-based; set-up: time < 24 hr, dose 500 mg/kg, route oral; conditions: plasma
[3] = tested on: Homo sapiens; test: Toxicity in human assessed as occurrence of pollakiuria at 250 […], po administered as single dose; format: organism-based; set-up: route oral; conditions: in vivo
[4] = tested on: Homo sapiens; test: Toxicity in human assessed as occurrence of somnolence at 750 […], po administered as single dose; format: organism-based; set-up: route oral; conditions: in vivo
[5] = tested on: Homo sapiens; test: Toxicity in human assessed as occurrence of abdominal pain at 1000 […], po administered as single dose; format: organism-based, Abdomen; set-up: route oral; conditions: in vivo
[6] = Tmax in human at 500 […], po measured on day 16; format: ADME, organism-based; set-up: dose 500 mg/kg, route oral; conditions: in vivo
[7] = AUC (0 to last) in human at 75 mg/kg, po measured on day 10; format: ADME, organism-based; set-up: time 0 - last, dose 75 mg/kg, route oral; conditions: plasma
[8] = Renal clearance in human at 500 […], po measured on day 10; format: ADME, organism-based, Kidney; set-up: route oral; conditions: in vivo, read-out: CL_renal (converted)
[9] = Tmax in human at 1000 […], po measured on day 1; format: ADME, organism-based; set-up: route oral; conditions: in vivo
[10] = AUC (0 to 24 hrs) in human at 75 mg/kg, po measured on day 10; format: ADME, organism-based; set-up: time < 24 hr, dose 75 mg/kg, route oral; conditions: plasma
[11] = tested on: Homo sapiens; test: Toxicity in human assessed as occurrence of pruritus at 75 […], po administered as single dose; format: organism-based; set-up: route oral; conditions: in vivo
[12] = Oral clearance in human at 750 […] measured on day 1; format: ADME, organism-based; conditions: in vivo
[13] = Clearance in human assessed as compound recovered in urine at 750 mg/kg, po measured on day 10 up to 24 hrs post dose; format: ADME, organism-based; set-up: dose 750 mg/kg, route oral; conditions: read-out: amount in urine
[14] = Cmax in human at 750 […], po measured on day 10; format: ADME, organism-based; set-up: dose 750 mg/kg, route oral; conditions: in vivo
[15] = Cmax in human at 75 […], po measured on day 10; format: ADME, organism-based; set-up: dose 75 mg/kg, route oral; conditions: in vivo
[16] = tested on: Homo sapiens; test: Toxicity in human assessed as occurrence of diarrhea at 500 […], po administered as single dose; format: organism-based; set-up: route oral; conditions: in vivo
[17] = Clearance in human assessed as compound recovered in urine at 500 mg/kg, po measured on day 16 up to 24 hrs post dose; format: ADME, organism-based; set-up: dose 500 mg/kg, route oral; conditions: read-out: amount in urine
[18] = Oral clearance in human at 500 mg/kg measured on day 10; format: ADME, organism-based; set-up: dose 500 mg/kg; conditions: in vivo
[19] = tested on: Homo sapiens; test: Toxicity in human assessed as occurrence of pollakiuria at 75 […], po administered as single dose; format: organism-based; set-up: route oral; conditions: in vivo
[20] = Tmax in human at 1000 […], po measured on day 10; format: ADME, organism-based; set-up: route oral; conditions: in vivo
[21] = AUC (0 to last) in human at 750 mg/kg, po measured on day 1; format: ADME, organism-based; set-up: dose 750 mg/kg, route oral, time 0 - last; conditions: plasma
[22] = Oral clearance in human at 500 mg/kg measured on day 16; format: ADME, organism-based; set-up: dose 500 mg/kg; conditions: in vivo
[23] = AUC (0 to last) in human at 1000 […], po measured on day 10; format: ADME, organism-based; set-up: time 0 - last, dose 1000 mg/kg, route oral; conditions: plasma
[24] = Cmax in human at 500 […], po measured on day 16; format: ADME, organism-based; set-up: dose 500 mg/kg, route oral; conditions: in vivo
[25] = Tmax in human at 500 […], po measured on day 10; format: ADME, organism-based; set-up: dose 500 mg/kg, route oral; conditions: in vivo
[26] = AUC (0 to 24 hrs) in human at 250 mg/kg, po measured on day 1; format: ADME, organism-based; set-up: time < 24 hr, dose 250 mg/kg, route oral; conditions: plasma
[27] = Terminal half life in human at 250 […], po measured on day 10; format: ADME, organism-based; set-up: route oral; conditions: in vivo, read-out: beta t1/2 (converted)
[28] = tested on: Homo sapiens; test: Toxicity in human assessed as occurrence of pruritus at 500 […], po administered as single dose; format: organism-based; set-up: route oral; conditions: in vivo
[29] = tested on: Homo sapiens; test: Toxicity in human assessed as occurrence of diarrhea at […], po administered as single dose; format: organism-based; set-up: route oral; dose or concentration left out as unconfirmed; conditions: in vivo
[30] = AUC (0 to 24 hrs) in human at 1000 […], po measured on day 1; format: ADME, organism-based; set-up: time < 24 hr, dose 1000 mg/kg, route oral; conditions: plasma
[31] = tested on: Homo sapiens; test: Toxicity in human assessed as occurrence of pruritus at 250 […], po administered as single dose; format: organism-based; set-up: route oral; conditions: in vivo
[32] = AUC (0 to last) in human at 500 mg/kg, po measured on day 16; format: ADME, organism-based; set-up: time 0 - last, dose 500 mg/kg, route oral; conditions: plasma
[33] = Terminal half life in human at 75 […], po measured on day 10; format: ADME, organism-based; set-up: route oral; conditions: in vivo, read-out: beta t1/2 (converted)
[34] = tested on: Homo sapiens; test: Toxicity in human assessed as occurrence of dermatitis at 750 […], po administered as single dose; format: organism-based; set-up: route oral; conditions: in vivo
[35] = Oral clearance in human at 250 mg/kg measured on day 1; format: ADME, organism-based; set-up: dose 250 mg/kg; conditions: in vivo
[36] = tested on: Homo sapiens; test: Toxicity in human assessed as occurrence of somnolence at 250 […], po administered as single dose; format: organism-based; set-up: route oral; conditions: in vivo
[37] = Clearance in human assessed as compound recovered in urine at 250 mg/kg, po measured on day 10 up to 24 hrs post dose; format: ADME, organism-based; set-up: dose 250 mg/kg, route oral; conditions: read-out: amount in urine
[38] = Terminal half life in human at 1000 […], po measured on day 10; format: ADME, organism-based; set-up: route oral; conditions: in vivo, read-out: beta t1/2 (converted)
[39] = Renal clearance in human at 75 […], po measured on day 10; format: ADME, organism-based, Kidney; set-up: route oral; conditions: in vivo, read-out: CL_renal (converted)
[40] = Clearance in human assessed as compound recovered in urine at 750 mg/kg, po measured on day 1 up to 24 hrs post dose; format: ADME, organism-based; set-up: dose 750 mg/kg, route oral; conditions: read-out: amount in urine
[41] = Renal clearance in human at 75 […], po measured on day 1; format: ADME, organism-based, Kidney; set-up: route oral; conditions: in vivo, read-out: CL_renal (converted)
[42] = Oral clearance in human at 500 mg/kg measured on day 1; format: ADME, organism-based; set-up: dose 500 mg/kg; conditions: in vivo
[43] = tested on: Homo sapiens; test: Toxicity in human assessed as occurrence of rashes at 250 […], po administered as single dose; format: organism-based; set-up: route oral; conditions: in vivo
[44] = Terminal half life in human at 750 […], po measured on day 10; format: ADME, organism-based; set-up: route oral; conditions: in vivo, read-out: beta t1/2 (converted)
[45] = tested on: Homo sapiens; test: Toxicity in human assessed as occurrence of diarrhea at 750 […], po administered as single dose; format: organism-based; set-up: route oral; conditions: in vivo
[46] = Cmax in human at 1000 […], po measured on day 1; format: ADME, organism-based; set-up: dose 1000 mg/kg, route oral; conditions: in vivo
[47] = tested on: Homo sapiens; test: Toxicity in human assessed as occurrence of abdominal pain at 250 […], po administered as single dose; format: organism-based, Abdomen; set-up: route oral; conditions: in vivo
[48] = Tmax in human at 250 […], po measured on day 1; format: ADME, organism-based; set-up: route oral; conditions: in vivo
[49] = Clearance in human assessed as compound recovered in urine at 500 mg/kg, po measured on day 10 up to 24 hrs post dose; format: ADME, organism-based; set-up: dose 500 mg/kg, route oral; conditions: read-out: amount in urine
[50] = tested on: Streptococcus pneumoniae; test: Ratio of fAUC (0 to 24 hrs) to MIC90 for Streptococcus pneumoniae; format: functional
[51] = Cmax in human at 500 […], po measured on day 10; format: ADME, organism-based; set-up: dose 500 mg/kg, route oral; conditions: in vivo
[52] = AUC (0 to 24 hrs)in human at 500 mg/kg, po measured on day 10; format: ADME, organism-based; set-up: time < 24 hr, dose 500 mg/kg, route oral; conditions: plasma
[53] = AUC (0 to 24 hrs) in human at 750 mg/kg, po measured on day 1; format: ADME, organism-based; set-up: time < 24 hr, dose 750 mg/kg, route oral; conditions: plasma
[54] = Tmax in human at 250 […], po measured on day 10; format: ADME, organism-based; set-up: dose 250 mg/kg, route oral; conditions: in vivo

COc1c(N2C[C@@H](C)C[C@H](N)C2)ccc2c(=O)c(C(=O)O)cn(C3CC3)c12 [NEMONOXACIN]
AUC(0-t) [1]: 31600 ng·h/mL
AUC at 24 h [2]: 22700 ng·h/mL
Activity [3]: 0%
Activity [4]: 0%
Activity [5]: 0%
Tmax [6]: 3.07 h
AUC(0-t) [7]: 5450 ng·h/mL
CL renal [8]: 131 mL/min
Tmax [9]: 2 h
AUC at 24 h [10]: 4270 ng·h/mL
Activity [11]: 0%
CL/F [12]: 252 mL/min
dose excreted at 24 h [13]: 41.8%
Cmax [14]: 6820 ng/mL
Cmax [15]: 514 ng/mL
Activity [16]: 0%
dose excreted at 24 h [17]: 30.5%
CL/F [18]: 184 mL/min
Activity [19]: 0%
Tmax [20]: 2.07 h
AUC(0-t) [21]: 46000 ng·h/mL
CL/F [22]: 313 mL/min
AUC(0-t) [23]: 88300 ng·h/mL
Cmax [24]: 2750 ng/mL
Tmax [25]: 1.31 h
AUC(0-t) at 24 h [26]: 13700 ng·h/mL
half-life [27]: 17.6 h
Activity [28]: 0%
Activity [29]: 0%
AUC(0-t) at 24 h [30]: 59600 ng·h/mL
Activity [31]: 0%
AUC(0-t) [32]: 26000 ng·h/mL
half-life [33]: 23 h
Activity [34]: 0%
CL/F [35]: 279 mL/min
Activity [36]: 0%
dose excreted at 24 h [37]: 49.9%
half-life [38]: 19.4 h
CL renal [39]: 168 mL/min
dose excreted at 24 h [40]: 47.1%
CL renal [41]: 198 mL/min
CL/F [42]: 242 mL/min
Activity [43]: 0%
half-life [44]: 19.7 h
Activity [45]: 0%
Cmax [46]: 7750 ng/mL
Activity [47]: 0%
Tmax [48]: 1.25 h
dose excreted at 24 h [49]: 57.8%
Ratio [50]: > 100
Cmax [51]: 5560 ng/mL
AUC at 24 h [52]: 38600 ng·h/mL
AUC(0-t) at 24 h [53]: 46100 ng·h/mL
Tmax [54]: 1.09 h
